Test results taken from patent US20180055816A1, “PYRANONAPHTHOQUINONE COMPOUNDS AND METHODS OF USE THEREOF” (University of Kentucky Research Foundation, priority 2016, published 2018).

Tests used:
[1] = target: T1, Prx1 (Homo sapiens, UniProt Q06830); test: Affinity pull-down / binding to Prx1; parameters: endogenous in cells; host or cells: HeLa cell lysates; HCT116 cell lysates; details: streptavidin pull-down, competition, Western blot
T1 sequence (Q06830 1-199): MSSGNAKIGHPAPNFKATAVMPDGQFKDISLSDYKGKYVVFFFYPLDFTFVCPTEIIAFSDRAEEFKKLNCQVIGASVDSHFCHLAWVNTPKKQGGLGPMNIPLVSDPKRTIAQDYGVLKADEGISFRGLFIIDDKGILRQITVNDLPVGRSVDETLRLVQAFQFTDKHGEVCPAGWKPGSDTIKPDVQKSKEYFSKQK
Procedure: The precipitates were resolved by SDS-PAGE, and the gel was stained with Coomassie blue. (C) Sequences illustrating amino acids and peptides of Prx1 and Grx3 identified by mass spectrometry analysis. The unique bands as shown by d7-pull down in the experiment for FIG. 20B were excised and subjected to in-gel tryptic digestion and analysis by MS, wherein the identified amino acids and peptides are shown in red characters. (D) Western blot illustrating that HCT116 cell lysates were incubated with different concentrations of d5 or d7 in the absence or presence of a ten-fold excess of FB for 3 h, followed by pull-down with streptavidin-agarose and Western blot analysis for the indicated proteins.
FIGS. 21A-D show images illustrating that the active probe d7 binds to and co-localizes with Prx1 and Grx3. (A) and (B) The recombinant Prx1 (A) or Grx3 (B) was incubated with d7 for 2 hours, followed by streptavidin pull down and Western blot analysis for the indicated proteins. (C) and (D) HCT116 cells were incubated with 25 μM d5, 25 μM d7 or DMSO as control for 5 hours, followed by confocal sections of the cells staining for Prx1 (C) or Grx3 (D) (red), biotin (green) and DAPI (blue). Scale bars, 10 μm.
HeLa cell pellets were purchased from National Cell Culture Center (Minneapolis, Minn.) and lysed in 20 ml of the NP-40 lysis buffer. […]

[2] = system: S6 phosphorylation; test: S6 phosphorylation in HCT116 cells (Western blot); assay type: cell-based, human; details: HCT116, 12 h; 2 μM FB or UCF76-A, 100 nM rapamycin, 0.5 μM AZD8055
Procedure: HCT116 cells were treated with 1 μM MK2206 and 100 nM PD0325901 alone and in combination, 100 nM rapamycin, 0.5 μM AZD8055, 2 μM UCF76-A or 2 μM FB for 12 h followed by Western blot analysis for the indicated proteins.
(§1) Cells were lysed in NP-40 lysis buffer (50 mM Tris-HCl, pH 7.5, 150 mM NaCl, 1 mM EDTA, 1% NP-40, 10% glycerol, protease and phosphatase inhibitor cocktail). Western blot analysis were performed using equivalent total protein loadings as described previously. For immunoprecipitation, the cell lysates were incubated with the indicated antibody overnight followed by incubation with a 50% slurry of protein G sepharose beads for 3 h at 4° C. The beads were washed three times with the lysis buffer, and the immunoprecipitated protein complexes were resuspended in 2× Laemmli sample buffer followed by western blot analysis.

[3] = system: HCT116 cells; test: Cell growth / cytotoxicity in HCT116 cells; assay type: cell-based, human; details: HCT116; 0.5 μM FB or UCF76-A versus 100 nM rapamycin, 0.5 μM AZD8055
Procedure: (§2) Compounds that pass this single dose filter are then tested in a CRC (HCT116) in vitro cytotoxicity assay and, in parallel, an in vitro assay to assess propensity for intracellular reactive oxygen species (ROS) production using the redox sensitive probe CeIIROX® Deep Red reagent (Invitrogen) by flow cytometry analysis (47).
(§3) Cell growth was assessed as described previously. Briefly, 5×10^4 cells were seeded in 6-well plates in triplicates. After 24 h, cells were treated with the indicated compounds and incubated at 37° C. The cells were cultured for 3 days and the number of viable cells was counted using the Vi-CELL XR 2.03 (Beckman Coulter, Brea, Calif.). For apoptosis, cells were analyzed by flow cytometry using the Annexin V-FITC Apoptosis Detection Kit according to the manufacturer's protocol (BD Biosciences, San Jose, Calif.).

[4] = system: 4E-BP1 phosphorylation; test: Inhibition of 4E-BP1 phosphorylation in HCT116 cells (Western blot); assay type: cell-based, human; details: 12 h
Procedure: as §2, §1

[5] = system: 4E-BP1 phosphorylation; test: 4E-BP1 phosphorylation in MDA-MB-231 breast cancer cells (Western blot); assay type: cell-based, human; details: MDA-MB-231 cells, 2 μM, 12 hours
Procedure: Cells were treated with 100 nM rapamycin, 0.5 μM AZD8055, 2 μM FB, 2 μM UCF76-A or DMSO control for 12 hours followed by Western blot analysis for the indicated proteins.
as §1

[6] = system: intracellular reactive oxygen species (ROS); test: Intracellular ROS production, CellROX Deep Red flow cytometry, HCT116 cells; assay type: cell-based, human; details: HCT116, 2 μM, 1 h
Procedure: as §2
The ROS production was determined using the CellROX Deep Red Flow Cytometry Assay Kit according to the manufacturer's protocol (Life Technologies). Briefly, cells were treated with 2 μM of the indicated compounds or DMSO as control for 1 h. After treatment, cells were incubated with 0.5 μM of CellROX Deep Red reagent for 1 h at 37° C., washed twice with PBS and immediately analyzed by a FACScan flow cytometer. For the measurement of cellular H2O2 level, cells were treated with 2 μM of the indicated compounds for 5 h.

[7] = system: colorectal cancer (CRC) cell lines; test: Cytotoxicity against a panel of colorectal cancer cell lines; assay type: cell-based, human; details: 72 h
Excerpt: Human colon (HCT116, DLD-1, T84, HCT15, RKO, SW620) and breast (MDA-MB-231) cancer cell lines were obtained from the American Type Culture Collection (ATCC, Manassas, Va.) and cultured in the appropriate medium with supplements as recommended by ATCC. […] In addition, all the cell lines are routinely checked for morphologic and growth changes, to probe for cross-contaminated, or genetically drifted cells. If any of these features occur, we use the short tandem repeat (STR) profiling service by ATCC to re-authenticate the cell lines. HCT116 cells with stable knockdown of 4E-BP1 and its control stable transfectants were generated as described previously {Ye, 2014 #1007}. For transient transfection, cells were transiently transfected with DNA using Lipofectamine 3000 according to the manufacturer's protocol (Life Technologies, Carlsbad, Calif.).
as §3

CCCC1OC2CC(=O)OC2C2=C1C(=O)c1c(O)cccc1C2=O (centres unmarked) [FB, frenolicin B]
binding to Prx1 [1]: directly targets
inhibition of S6 phosphorylation [2]: did not inhibit
inhibition of CRC cell growth compared with mTOR inhibitors [3]: more potent than mTOR inhibitors
inhibition of 4E-BP1 phosphorylation [4]: effectively inhibited
inhibition of 4E-BP1 phosphorylation [5]: selectively inhibit
cellular ROS [6]: marked increase
cytotoxicity against CRC cell lines [7]: potent cytotoxicity
cytotoxicity against CRC cell lines ([7]; listed as frenolicin B): potent cytotoxic activity
